According to ChEMBL document CHEMBL1201862, “PubChem BioAssay data set” (2004):
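Test compounds were applied to cells in 96-well plates for 48 hours at 5 doses. Here, GI50 denotes the concentration required for 50% inhibition of growth.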 The source made the active and inactive calls. Cut-off read from the data, not from the text of the source: active = GI50 up to about 1.1 µM and inactive = higher.

What was measured:
Test in all cases: NCI tumour cell line growth inhibition, 48 h
[1] = tested on: BT-549
[2] = tested on: MDA-N
[3] = tested on: DLD-1
[4] = tested on: DMS-273
[5] = tested on: LXFL 529
[6] = tested on: M19-MEL
[7] = tested on: HOP-18
[8] = tested on: XF498

Structure (SMILES) | GI50 [1] | GI50 [2] | also measured
CCc1nnc2sc(-c3ccc(-c4ccc(Cl)cc4Cl)o3)nn12 | 50 µM (inactive) | 66.5 µM (inactive) | –
Nc1ccc(C(=O)NN2C(=O)C(Cl)C2c2cccc(O)c2)cc1 (stereo not given) | – | – | GI50 [3]: 14.4 µM (inactive); GI50 [4]: 11 µM (inactive); GI50 [5]: 11.7 µM (inactive); GI50 [6]: 21.5 µM (inactive)
O[C@H]1[C@H]2[C@H](O)CCCN2C[C@H]1O [TRIDOLGOSIR] | – | – | GI50 [3]: > 100 µM (inactive); GI50 [4]: > 100 µM (inactive); GI50 [7]: > 100 µM (inactive); GI50 [5]: > 100 µM (inactive); GI50 [6]: > 100 µM (inactive); GI50 [8]: > 100 µM (inactive)
CC(C)(C)OC(=O)NC(Cc1ccccc1)C(=O)OCN1C(=O)C2C3C=CC(C2C1=O)C1C2C(=O)N(COC(=O)C(Cc4ccccc4)NC(=O)OC(C)(C)C)C(=O)C2C31 (stereo not given) | 18.6 µM (inactive) | – | –
O=C(O)c1cccc2c1/C(=N/Nc1ccccc1)CC2 | – | > 100 µM (inactive) | –
O=C1/C(=C/c2cccc([N+](=O)[O-])c2)N=C(c2ccccc2)N1c1nc2c(Cl)cc(Cl)cc2s1 | 30.5 µM (inactive) | 18.4 µM (inactive) | –
CCCCCCCC(CC(=O)NC(CO)C(=O)NC(CO)CC(C)C)OC(=O)CC(CCCCCCC)OC(=O)CC(CCCCCCC)OC1OC(C)C(O)C(OC2OC(C)C(OC(C)=O)C(O)C2O)C1O (stereo not given) | 6.17 µM (inactive) | 3.4 µM (inactive) | –
O=c1oc2ccc([N+](=O)[O-])cc2c(Nc2ccc3c(c2)Oc2ccccc2O3)c1[N+](=O)[O-] | 30.4 µM (inactive) | 36.2 µM (inactive) | –
CSCCC(NCc1c(O)ccc2ccc(=O)oc12)C(=O)O (stereo not given) | – | > 100 µM (inactive) | –
Cc1ccc(-c2ccc(Nc3c4ccccc4nc4ccccc34)cc2)cn1 | – | 6.07 µM (inactive) | –
O=C(COC(=O)c1ccccc1)c1ccc(Br)cc1 | 6.14 µM (inactive) | 4.71 µM (inactive) | –
O=C(O)c1cc2c(s1)C(=O)c1sccc1C2=O | 1.91 µM (inactive) | 0.769 µM (active) | GI50 [3]: 14.4 µM (inactive); GI50 [4]: 10.9 µM (inactive); GI50 [7]: 5.52 µM (inactive); GI50 [6]: 1.24 µM (inactive); GI50 [8]: 20.9 µM (inactive)
N=C(N)NCCCC(NCc1c2ccccc2nc2ccccc12)C(=O)O (stereo not given) | 30.9 µM (inactive) | 37.2 µM (inactive) | GI50 [3]: 17.3 µM (inactive); GI50 [4]: 31.3 µM (inactive); GI50 [5]: 38.5 µM (inactive); GI50 [6]: 58.7 µM (inactive)
CC1=NN(C(=O)CSc2nc3ccc(I)cc3c(=O)n2Cc2ccccc2)C(=O)C1 | – | 31.2 µM (inactive) | –
CC(=O)NS(=O)(=O)c1ccc(NC(=O)COC(=O)c2cccc3c(=O)c4ccccc4[nH]c23)cc1 | – | – | GI50 [4]: > 100 µM (inactive); GI50 [7]: > 100 µM (inactive); GI50 [6]: > 100 µM (inactive); GI50 [8]: > 100 µM (inactive)
NC(=O)C12C3C4C1C1C2C3C41C(N)=O (stereo not given) | – | – | GI50 [3]: > 100 µM (inactive); GI50 [4]: > 100 µM (inactive); GI50 [7]: > 100 µM (inactive); GI50 [5]: > 100 µM (inactive); GI50 [6]: > 100 µM (inactive)
COc1ccc(/C=C2\CCC/C(=C\c3ccc(O)c(CN4CCCCC4)c3)C2=O)cc1 | 4.65 µM (inactive) | 3.55 µM (inactive) | –
CC12CCC3c4ccc(O)cc4CCC3C1C/C(=N\O)C2O (stereo not given) | > 100 µM (inactive) | > 100 µM (inactive) | –
CN(C)c1ccc(/C=C/C(=O)CC(=O)/C=C/c2ccc(N(C)C)cc2)cc1 | – | 83.2 µM (inactive) | –
Cc1cc(O)nc(NNC(C#N)c2ccc(N(C)C)cc2)n1 (stereo not given) | – | – | GI50 [3]: > 100 µM (inactive); GI50 [4]: > 100 µM (inactive); GI50 [7]: > 100 µM (inactive); GI50 [6]: > 100 µM (inactive)
COc1cc(/C=N/N=C(\N)NO)cc(Cl)c1O | – | – | GI50 [3]: 71.1 µM (inactive); GI50 [7]: 19.2 µM (inactive); GI50 [5]: 44 µM (inactive); GI50 [6]: 27.8 µM (inactive)
COC1(OC)c2no[n+]([O-])c2CCC1O (stereo not given) | – | > 100 µM (inactive) | –

Structure (SMILES) | GI50 [1] | GI50 [2] | also measured
NCCCN(CCCCN(CCCN)Cc1ccc2ccccc2c1)Cc1ccc2ccccc2c1 | 2.23 µM (inactive) | 1.88 µM (inactive) | –
CC1(C)C(=S)C(C)(C)C1=S | – | > 100 µM (inactive) | –
CCOC(=O)N1c2ccccc2N(C(=O)OCC)C1CC(=O)/C=C/c1ccccc1 | 2.89 µM (inactive) | 3.57 µM (inactive) | –
COC(=O)c1ccccc1CC(Cc1ccccc1)C(=O)OC (stereo not given) | > 100 µM (inactive) | – | –
Cc1c(N2C(=O)/C(=C/c3ccc(N(CCC#N)CCC#N)cc3)N=C2c2ccccc2)c(=O)n(-c2ccccc2)n1C | > 100 µM (inactive) | > 100 µM (inactive) | –
CN1CCN(c2ccc3nc(C4=C(O)C(=O)[C@@H]5C(=C4O)N=C(CO)N5C)[nH]c3n2)CC1 | > 100 µM (inactive) | – | –
CC1CC(=O)C(CC(=O)O)C1C(C(=O)C(=O)Nc1c(C#N)cccc1[N+](=O)[O-])[N+](=O)[O-] (stereo not given) | – | – | GI50 [3]: > 100 µM (inactive); GI50 [5]: > 100 µM (inactive); GI50 [6]: > 100 µM (inactive); GI50 [8]: > 100 µM (inactive)
CC1(C)OC2OC(C(COS(=O)(=O)C(F)(F)F)N=[N+]=[N-])C(OC(=O)c3ccccc3)C2O1 (stereo not given) | > 100 µM (inactive) | > 100 µM (inactive) | –
C/C=C(/C)C(=O)O[C@H]1[C@H]2[C@@H]([C@@H](OC(C)=O)[C@H](C)C(=O)[C@@]34C[C@@H](C)C(=O)[C@]3(/C=C(\C)[C@H]1OC(C)=O)O4)C2(C)C | 2.84 µM (inactive) | 1.27 µM (inactive) | –
COc1ccc(S(=O)(=O)c2nnc(S(=O)(=O)Cc3ccccc3)s2)cc1 | 27 µM (inactive) | – | –
O=C(CSSCC(=O)OCCS(=O)(=O)Nc1ccc(Br)cc1)OCCS(=O)(=O)Nc1ccc(Br)cc1 | – | – | GI50 [3]: 15.7 µM (inactive); GI50 [4]: 9.51 µM (inactive); GI50 [7]: > 100 µM (inactive); GI50 [5]: 7.1 µM (inactive); GI50 [6]: 15.1 µM (inactive)
COc1cccc(-c2cc(O)c3cc(N4CCN(C)CC4)ccc3n2)c1 | 4.46 µM (inactive) | 0.265 µM (active) | –
Cc1cc2c(cc1C)NC1=C(O)C(c3c[nH]c4ccc(COc5ccccc5)cc34)OC1=N2 (stereo not given) | > 100 µM (inactive) | > 100 µM (inactive) | –
C#CC1(O)CCCCCCCCC2(CCCCCCCC1)OCCO2 | – | 20.9 µM (inactive) | –
NC1C[C@H](n2cc(/C=C/Br)c(=O)[nH]c2=O)C[C@@H]1CO (stereo not given in full) | – | – | GI50 [3]: > 100 µM (inactive); GI50 [4]: > 100 µM (inactive); GI50 [7]: > 100 µM (inactive); GI50 [5]: 50.4 µM (inactive); GI50 [6]: > 100 µM (inactive)
CCOC(=O)c1cc(C2CCN(Cc3ccccc3)C2=O)c(C(=O)C(=[N+]=[N-])C(C)=O)[nH]1 (stereo not given) | > 100 µM (inactive) | – | –
COc1ccc(/C=N/NS(=O)(=O)c2ccc(/C=C3\NC(=O)N(C)C3=O)cc2)cc1 | > 100 µM (inactive) | > 100 µM (inactive) | –
Cc1ccc(-c2nc3cc(F)c(N4CCN(C)CC4)cc3[nH]2)cc1 | 22.1 µM (inactive) | 32.4 µM (inactive) | –
COC(=O)C(=O)C(C(=O)C(=O)Nc1ccc(OC)cc1[N+](=O)[O-])c1nc2ccc([N+](=O)[O-])cc2nc1O (stereo not given) | – | – | GI50 [3]: > 100 µM (inactive); GI50 [7]: > 100 µM (inactive); GI50 [5]: > 100 µM (inactive); GI50 [6]: > 100 µM (inactive); GI50 [8]: > 100 µM (inactive)
Cc1cc2c(cc1-c1cc3c(cc1C)C(C(C)C)=C(O)C(=O)/C3=C\Nc1nc(-c3ccccc3)cs1)/C(=C/Nc1nc(-c3ccccc3)cs1)C(=O)C(O)=C2C(C)C | 23.8 µM (inactive) | 41.1 µM (inactive) | –
C=C1CC(CC)(CCN2C(=O)c3ccccc3C2=O)OC1=O (stereo not given) | – | – | GI50 [3]: 17.9 µM (inactive); GI50 [4]: 11.4 µM (inactive); GI50 [5]: 13.6 µM (inactive); GI50 [8]: 13.4 µM (inactive)
CCOP(=O)(/C=C/n1cnc2c(=O)n(C(C)=O)c(N)nc21)OCC | > 100 µM (inactive) | > 100 µM (inactive) | –

Structure (SMILES) | GI50 [1] | GI50 [2] | also measured
Nc1nc(Cl)cc(NCC2(CO)CCC(Cc3ccccc3)C2)n1 (stereo not given) | 16.2 µM (inactive) | 23.1 µM (inactive) | –
CC(=O)Oc1cccc2c1C(=O)CCCC2 | > 100 µM (inactive) | – | –
COC(=O)C1=C(C(=O)OC)C23C=CC=CC24C(C(=O)OC)=C(C(=O)OC)C4C1C3 (stereo not given) | – | – | GI50 [3]: > 100 µM (inactive); GI50 [4]: 72.9 µM (inactive); GI50 [5]: 74.1 µM (inactive); GI50 [6]: > 100 µM (inactive); GI50 [8]: > 100 µM (inactive)
NCCCN(CCCN(C(=O)Nc1ccccc1)c1ccccc1)C(=O)Nc1ccccc1 | 31 µM (inactive) | 40.5 µM (inactive) | –
CCNC(=O)c1cc(Cl)ccc1NC(=O)C12CC3CC(CC(C3)C1)C2 | 36.6 µM (inactive) | 22.5 µM (inactive) | –
c1ccc2c(c1)c1c(n2CCOCCN2CCOCC2)CCCC1 | – | 37.8 µM (inactive) | –
COc1ccc2nc3c4c(nccc4c2c1)-c1ncccc1C3=O | 0.109 µM (active) | 0.0631 µM (active) | –
C1CC[N+]23CCCC[N+]2(C1)CCCC3 (stereo not given) | – | – | GI50 [3]: > 100 µM (inactive); GI50 [5]: > 100 µM (inactive); GI50 [6]: > 100 µM (inactive)
c1cc2cc3c4c5c(cc6ccc7cc8cc9c%10c8c8c7c6c5c8c5c%10c(c1C9N1CCOCCOCCOCCOCCOCC1)c2c45)C3 (stereo not given) | > 100 µM (inactive) | > 100 µM (inactive) | –
CC1=NN(c2cccc(Cl)c2)C2(SCC(=O)N2c2nc3ccccc3s2)C1=CC=Cc1ccccc1 (stereo not given) | – | 34.1 µM (inactive) | –
O=C(NC(=S)Nc1ccc(Br)cc1)c1ccc2c(c1)Sc1ccccc1O2 | > 100 µM (inactive) | > 100 µM (inactive) | –
O=C1NN=C2C=C(c3ccc(Cl)cc3)CC(c3cccc(Br)c3)C12 (stereo not given) | > 100 µM (inactive) | > 100 µM (inactive) | –
Cc1nc2ccccc2c(=O)n1/N=C(\N=N\c1ccc(Cl)cc1)c1cccc(-c2ccco2)c1 | – | – | GI50 [3]: 27.9 µM (inactive); GI50 [4]: 27.9 µM (inactive); GI50 [7]: 21.1 µM (inactive); GI50 [5]: 25.3 µM (inactive); GI50 [6]: 34.1 µM (inactive)
CC[C@@H]1CC[C@@H]2[C@H](CC[C@]3(C)[C@@H](O)CC[C@@H]23)[C@H]1CO | > 100 µM (inactive) | > 100 µM (inactive) | –
CC1=CC(O)(c2ccccc2)C(N2CCOCC2)N1O (stereo not given) | > 100 µM (inactive) | > 100 µM (inactive) | –
Cn1c(=S)c2nc(SCc3cccnc3)[nH]c2n(C)c1=O | > 100 µM (inactive) | > 100 µM (inactive) | –
COC(=O)CC1(O)C(C=C(C)C)C(C(=O)OC)C(=O)C(C(=O)OC)C1C(=O)OC (stereo not given) | 11.4 µM (inactive) | > 100 µM (inactive) | –
Cc1ccccc1-n1c(=O)sc2c(=O)n(-c3ccccc3)c(=S)[nH]c21 | – | – | GI50 [3]: > 100 µM (inactive); GI50 [4]: > 100 µM (inactive); GI50 [7]: > 100 µM (inactive); GI50 [5]: > 100 µM (inactive); GI50 [6]: > 100 µM (inactive)
CN(C)CCNC1=Nc2ccccc2C(=O)N2CSCC12 (stereo not given) | > 100 µM (inactive) | > 100 µM (inactive) | –
Oc1ccc(Cl)cc1C1=NC(/N=C\c2ccccc2)=NC(c2ccccc2)C1 (stereo not given) | > 100 µM (inactive) | – | –
Cc1n[nH]c(=O)n1/N=C/c1cccnc1 | > 100 µM (inactive) | > 100 µM (inactive) | –
